# Source: patent US20100092456A1, “METHODS OF TREATMENT” (priority 2006, published 2010)
# Key:
# [1] = tested on: ING2; test: Western blot of endogenous ING2 associated with the CEF of MEL cells; format: cell-based, Murine; details: MEL cells; 200 J/m UV; NAC 5 mM 4 hours, wortmannin 200 nM and 5 μM, curcumin 100 μM
# Description: FIG. 4. A) Exponentially growing MEL cells were irradiated with either 200 J/m of UV light or 10 Gy of gamma radiation. After 30 minutes the CEF was isolated and the subjected to SDS-PAGE followed by transfer of the separated proteins to a nitrocellulose membrane. Western blotting for endogenous ING2 and histone 4 proteins was performed. Representative western blots are shown. B) Exponentially growing MEL cells were incubated in the absence or presence of N-acetyl cysteine (NAC) (5 mM) for 4 hours prior to a control irradiation or exposed to 200 J/m of UV light before the isolation of the CEF. Differentiated MEL cells were incubated in the absence or presence of H2O2 (500 μM) for 15 minutes prior to the isolation of the CEF. Proteins in the CEF were subjected to SDS-PAGE followed by transfer to a nitrocellulose membrane. Western blotting for endogenous ING2 and histone 4 proteins was performed. Representative western blots are shown. C) MEL cells were preincubated with either vehicle, wortmannin (200 nM and 5 μM) or curcumin (100 μM) were irradiated with 200 J/m of UV light. After 30 minutes the CEF was isolated and proteins were subjected to SDS-PAGE followed by transfer to a nitrocellulose membrane. Western blotting for endogenous ING2 and histone 4 proteins was performed. Representative western blots are shown. D) The CEF from transiently transfected MEL cells with either pSuper or pSuper-IIβRNAi was prepared. Proteins in the CEF were subjected to SDS-PAGE followed by transfer to a nitrocellulose membrane. […] Proteins were analysed by standard western blotting procedures employing the following antibodies: anti-tubulin and anti-flag (both from Sigma), anti-actin (Chemicon International), anti-histone 4 (Upstate Biotechnology), anti-phospho p54, anti-phospho p46, anti-phospho p38, total p54, total p46 and total p38 (all from Cell Signalling Technology) anti-ING2, anti EGFP (Clontech), anti-type II β PIP kinase, anti-GST and anti-myc (both generated in house).
# [2] = tested on: MEL cells; test: MEL cell viability and cell cycle profile; format: cell-based, Murine
# Description: Ethanol fixed cells were incubated with prodium iodide (20 μg/ml) and RNAse (10 μg/ml) before cell cycle analysis by flow cytometry. Proteins were analysed by standard western blotting procedures employing the following antibodies: anti-tubulin and anti-flag (both from Sigma), anti-actin (Chemicon International), anti-histone 4 (Upstate Biotechnology), anti-phospho p54, anti-phospho p46, anti-phospho p38, total p54, total p46 and total p38 (all from Cell Signalling Technology) anti-ING2, anti EGFP (Clontech), anti-type II β PIP kinase, anti-GST and anti-myc (both generated in house).
# To investigate the sub-nuclear localisation of UV-induced nuclear PtdInsPs, we fractionated nuclei to generate nucleoplasm (containing nuclear membranes and soluble nuclear material) and the chromatin enriched fraction (CEF) (FIG. 1c inset). […] Thus, the PtdInsP pool present in the CEF is a target for regulation in response to cellular stress.
# [3] = tested on: PtdIns4P and PtdIns5P in the CEF of MEL cells; test: Mass assay of PtdIns4P and PtdIns5P in the CEF of MEL cells with or without UV irradiation; format: cell-based, Murine; details: MEL cells preincubated with wortmannin (200 nM and 5 μM) or curcumin (100 μM); 200 J/m UV; CEF after 30 minutes
# Description: D) MEL cells were preincubated with either vehicle (DMSO) or wortmannin (200 nM and 5 μM) were irradiated with 200 J/m of UV light. After 30 minutes the CEF was isolated and a mass assay was used to determine the levels of PtdIns4P and PtdIns5P (expressed as % of control non-irradiated cells. The results are calculated from 3 independent experiments).
# E) MEL cells were preincubated with either vehicle (ethanol) or curcumin (100 μM) were irradiated with 200 J/m of UV irradiation. After 30 minutes the CEF was isolated and a mass assay was used to determine the levels of PtdIns4P and PtdIns5P (expressed as % of control, non curcumin-treated nor non UV-irradiated cells. The results are calculated from 3 independent experiments).
# C) MEL cells were transiently transfected to express EGFP, EGFP-type II b PIP kinase and EGFP-IpgD/IpgE. In addition MEL cells were transfected with pSuper-IIβRNAi. […] A mass assay was used to determine the level of PtdIns5P (expressed as % of control non-irradiated cells. The results are calculated from 3 independent experiments). […]
# MEL cells were washed, twice in ice cold PBS before their fractionation using a detergent-free hypotonic buffer. […] The protein content of all fractions was determined using the Bradford reagent (BioRad). PtdIns4P and PtdIns5P were measured using in vitro mass assays employing recombinant type I and type II PIP kinases, respectively. […]
# [4] = target: PIKfyve (Homo sapiens, UniProt Q9Y2I7); details: background statement; cited from earlier work
# Chain of PIKfyve (Q9Y2I7 whole entry, species assumed): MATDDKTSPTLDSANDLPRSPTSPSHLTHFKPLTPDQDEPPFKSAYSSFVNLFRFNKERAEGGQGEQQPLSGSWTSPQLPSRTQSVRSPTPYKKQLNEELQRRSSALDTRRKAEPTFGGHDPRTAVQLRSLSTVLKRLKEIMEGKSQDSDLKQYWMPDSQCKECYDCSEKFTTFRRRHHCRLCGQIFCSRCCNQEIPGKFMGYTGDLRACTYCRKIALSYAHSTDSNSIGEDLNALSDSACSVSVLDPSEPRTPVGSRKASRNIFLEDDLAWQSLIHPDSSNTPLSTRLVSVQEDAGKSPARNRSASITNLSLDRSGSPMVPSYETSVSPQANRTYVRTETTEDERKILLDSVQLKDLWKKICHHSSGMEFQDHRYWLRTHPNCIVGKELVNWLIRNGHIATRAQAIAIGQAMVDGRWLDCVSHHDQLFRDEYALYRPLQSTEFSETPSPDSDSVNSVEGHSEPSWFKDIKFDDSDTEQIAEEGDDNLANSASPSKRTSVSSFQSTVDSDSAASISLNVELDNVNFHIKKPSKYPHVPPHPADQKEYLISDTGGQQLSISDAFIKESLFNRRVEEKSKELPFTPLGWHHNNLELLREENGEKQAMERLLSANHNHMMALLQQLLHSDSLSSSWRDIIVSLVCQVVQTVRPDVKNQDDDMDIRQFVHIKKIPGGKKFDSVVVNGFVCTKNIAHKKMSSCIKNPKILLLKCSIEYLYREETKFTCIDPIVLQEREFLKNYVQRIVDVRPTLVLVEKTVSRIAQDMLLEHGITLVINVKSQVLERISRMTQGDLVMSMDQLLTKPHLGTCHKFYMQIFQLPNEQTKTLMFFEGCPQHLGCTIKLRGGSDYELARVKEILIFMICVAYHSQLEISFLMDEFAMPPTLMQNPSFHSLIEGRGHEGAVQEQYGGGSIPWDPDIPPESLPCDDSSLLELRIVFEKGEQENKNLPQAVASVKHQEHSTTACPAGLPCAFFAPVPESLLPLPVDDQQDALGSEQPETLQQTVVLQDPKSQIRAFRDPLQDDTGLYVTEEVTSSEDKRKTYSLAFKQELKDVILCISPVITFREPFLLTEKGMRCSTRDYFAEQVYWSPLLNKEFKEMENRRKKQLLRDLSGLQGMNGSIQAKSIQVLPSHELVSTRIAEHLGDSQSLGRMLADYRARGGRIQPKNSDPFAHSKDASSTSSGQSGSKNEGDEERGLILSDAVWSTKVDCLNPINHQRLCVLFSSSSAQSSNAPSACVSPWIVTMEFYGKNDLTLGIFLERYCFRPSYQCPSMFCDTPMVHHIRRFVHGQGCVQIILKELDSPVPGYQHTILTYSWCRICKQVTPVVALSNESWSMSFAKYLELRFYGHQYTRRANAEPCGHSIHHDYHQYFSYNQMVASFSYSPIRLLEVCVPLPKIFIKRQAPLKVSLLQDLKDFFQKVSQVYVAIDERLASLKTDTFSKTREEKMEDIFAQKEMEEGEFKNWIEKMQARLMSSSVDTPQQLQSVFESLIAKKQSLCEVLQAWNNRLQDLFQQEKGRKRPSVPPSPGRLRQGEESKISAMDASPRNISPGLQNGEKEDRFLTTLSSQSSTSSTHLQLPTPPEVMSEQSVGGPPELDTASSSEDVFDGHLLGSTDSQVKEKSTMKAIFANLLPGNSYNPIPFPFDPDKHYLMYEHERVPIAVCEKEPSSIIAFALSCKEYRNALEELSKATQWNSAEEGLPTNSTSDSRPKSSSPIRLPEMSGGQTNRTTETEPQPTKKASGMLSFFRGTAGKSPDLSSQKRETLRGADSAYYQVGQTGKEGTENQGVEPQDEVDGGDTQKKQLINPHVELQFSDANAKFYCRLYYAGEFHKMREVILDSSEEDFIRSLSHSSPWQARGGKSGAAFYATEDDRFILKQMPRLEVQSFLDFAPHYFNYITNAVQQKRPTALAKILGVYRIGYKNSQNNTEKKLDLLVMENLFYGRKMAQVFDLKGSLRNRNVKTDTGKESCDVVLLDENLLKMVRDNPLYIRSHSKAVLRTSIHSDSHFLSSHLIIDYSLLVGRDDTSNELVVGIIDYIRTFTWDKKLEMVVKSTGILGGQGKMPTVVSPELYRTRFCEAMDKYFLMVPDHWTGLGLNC
smiles,measurement,setting,value
COc1cc(/C=C/C(=O)CC(=O)/C=C/c2ccc(O)c(OC)c2)ccc1O [curcumin],UV-induced translocation of endogenous ING2 to the CEF,[1],completely inhibited
same,effect on MEL cell viability,[2],no effect
same,effect on the cell cycle profile,"[2]; MEL cells, compound alone",no effect
same,UV light-induced accumulation of PtdIns4P,[3],inhibited
same,UV light-induced accumulation of PtdIns5P,[3],inhibited
same,inhibition of PIKfyve,[4],able to inhibit
